The nature of series [1]: Stability of SH-11037 in human plasma. As to conditions: pH 7.4, SH-11037 1 µM, 37 °C, read-out: half-life (t1/2) of hydrolysis to SH-11008. It is filed as in vitro ADME. As to the method: (§1) SH-11037 (1 μM) was incubated in triplicate in 0.1 M phosphate buffer (pH 7.4) or in mouse, dog, and human plasma to investigate its stability. SH-11037 (40 μM) in 50 vol% aqueous CH3CN was mixed with 0.1 M phosphate buffer (pH 7.4) or plasma diluted 3-fold with 0.1 M phosphate buffer (pH 7.4) to a final volume of 160 μL and a final concentration of 1 μM. The resulting solutions were then incubated at 37 °C in a shaking water bath. The incubations were terminated at selected times by adding 160 µL of ice-cold CH3CN containing glipizide (500 ng/mL) as the internal standard (IS). The resulting mixture was vortexed, sonicated, and centrifuged at 3000× g for 20 min. Aliquots of the supernatant were subjected to LC-MS/MS analysis described below in Section 2.6.2.
(§2) The LC-MS/MS system consisted of Agilent 1290 Infinity HPLC system and Agilent 6530 Accurate-Mass Quadrupole Time-of-Flight (Q-TOF) mass spectrometer equipped with dual AJS ESI ion source (Agilent Technologies Korea, Seoul, Korea). Chromatographic separation was performed on an Agilent Eclipse Plus C18 column (2.1 × 100 mm, 3.5 μm) with a Phenomenex Security Guard C18 guard column (4 × 20 mm) maintained at 40 °C. The mobile phase consisted of 0.1% formic acid in deionized water (A) and 0.1% formic acid in CH3CN (B): 0~2 min 5% B, 2~7 min to 95% B, and 7~10 min 95% B. Total run time including a 5 min equilibration time was 15 min. […]

A short description of series [2]: Stability of SH-11037 in dog plasma. It is filed as in vitro ADME. As to conditions: beagle, pH 7.4, SH-11037 1 µM, 37 °C, read-out: half-life (t1/2) of hydrolysis to SH-11008. The protocol: as §1, §2
The nature of series [3]: Mouse pharmacokinetics, single i.v. dose. The format is in vivo. As to conditions: plasma, iv, single i.v. dose of SH-11008 3 mg/kg, male ICR mice. As to the method:
Pharmacokinetic studies were performed with male ICR mice (8 weeks old, 30~35 g) purchased from Koatech Co. (Kyunggi, Korea) as reported previously. Test compounds were dissolved at 1 mg/mL in DMA/Tween 80/20% aqueous HPβCD (10/10/80 vol%) to prepare the dosing solutions. SH-11037 was administered by oral (p.o.) gavage at a dose of 10 mg/kg and a dose volume of 10 mL/kg (equimolar to 6 mg/kg of SH-11008) or intravenously (i.v.) via tail vein injection at a dose of 5 mg/kg and a dose volume of 5 mL/kg (equimolar to 3 mg/kg of SH-11008), respectively. SH-11008 was administered p.o. at a dose of 6 mg/kg and a dose volume of 6 mL/kg or i.v. at a dose of 3 mg/kg and a dose volume of 3 mL/kg, respectively. Plasma samples were analyzed as described below in Section 2.6.1.
Calibration standards and quality control (QC) samples were prepared by spiking 15 μL of blank plasma with 5 μL of analyte working solution prepared in 50 vol% aqueous CH3CN. For sample preparation, 15 μL aliquots of plasma samples combined with 5 μL of 50 vol% aqueous CH3CN were mixed with 3 volumes of ice-cold CH3CN containing glipizide (500 ng/mL) as the IS. The mixture was vortexed, sonicated, and centrifuged at 3000× g for 20 min. The supernatant was then mixed with the same volume of HPLC grade water before analysis. Sample analyses were conducted using Agilent 1290 Infinity HPLC system coupled to Agilent 6460 Triple Quadrupole LC-MS/MS system equipped with Jet Stream ESI ion source (Agilent Technologies Korea, Seoul, Korea). Chromatographic separation was performed on an Agilent Eclipse Plus C18 column (2.1 × 100 mm, 3.5 μm) with a Phenomenex Security Guard C18 guard column (4 × 20 mm) maintained at 40 °C. The mobile phase consisted of 0.1% formic acid in deionized water (A) and 0.1% formic acid in CH3CN (B): 0~2 min 5% B, 2~3 min to 95% B, and 3~6.5 min 95% B. Total run time including a 3 min equilibration time was 9.5 min. The flow rate was 0.45 mL/min. The injection volume was 5 µL. Detection of the analyte ions was performed in the positive multiple reaction monitoring (MRM) mode, with the following mass transitions (precursor > product): m/z 644 > 588, 397 > 367, and 446 > 321 for SH-11037, SH-11008 and IS, respectively. […] The lower limit of quantitation of SH-11037 and SH-11008 were 0.24 and 0.48 ng/mL, respectively, with a signal-to-noise ratio based on root mean square noise > 10. The calibration curves were linear in the range of 0.24–500 ng/mL (r^2 > 0.997) for SH-11037 and 0.48–500 ng/mL (r^2 > 0.998) for SH-11008, respectively. The precision and accuracy of the analytical method were evaluated with the QC samples prepared in triplicate at 5, 250, and 400 ng/mL for both of SH-11037 and SH-11008: the coefficient of variation (%CV) and the relative error (%RE) were in the ranges of −21.23~5.72% and 1.47~12.30% for SH-11037 and −22.85~4.96% and 1.2~13.8% for SH-11008, respectively. Extraction recovery, matrix effect, and process efficiency were in the ranges of 91.8~107.1%, 86.3~99.9%, and 88.8~100.8% for SH-11037 and 88.9~103.8%, 88.9~100.0%, and 80.0~97.4% for SH-11008, respectively. Quantitative analysis data were obtained with Agilent Mass Hunter Quantitative Analysis QQQ (ver. B.05.00) software.
Pharmacokinetic parameters were calculated by noncompartmental analysis of plasma concentration versus time profiles using PKSolver. The scaling factors of mice and human, half-life (t1/2), intrinsic clearance (CLint), hepatic clearance (CLH), and hepatic extraction ratio (EH) were from the in vitro studies as described previously. […] The fraction of parent drug converted to the metabolite (fm) was calculated as follows:fm (%) = (AUC(m) × CL(m))/D × MWparent/MWmetabolite × 100,(1) where D is dose of the parent drug, AUC(m) is area under the curve for the metabolite after a dose of parent drug, CL(m) is CL of metabolite, and MW is molecular weight.

Consider `COc1ccc(CC2COc3cc(OC)c(OC)c(OC)c3C2=O)cc1OC(=O)[C@H](Cc1ccccc1)NC(=O)OC(C)(C)C` (stereo partly drawn) [SH-11037], for which the half-life at 1 µM in series [1] was 73.2 min; in series [2] it was 69.1 min.
In the case of `COc1ccc(CC2COc3cc(OC)c(OC)c(OC)c3C2=O)cc1O` (stereo not drawn) [SH-11008], in series [3], the Cmax was 770 ± 1160 ng/mL, the Tmax was 5 min and the clearance turned out to be 210 ± 17.2 mL/min/kg. Also, the half-life in series [3] (n = 3, read-out: t1/2 of SH-11008) was found to be 3.5 ± 0.5 min. Further, the AUC(0-inf) in series [3] (read-out: AUCinf of SH-11008 (converted)) is 239 ng·h/mL. The AUC(0-t) in series [3] (read-out: AUClast of SH-11008 (converted)) was 239 ng·h/mL. The Vd in series [3] (read-out: Vss) was 0.5 ± 0.1 L/kg.

The values above are taken from PMC9697349, “Mouse Pharmacokinetics and In Vitro Metabolism of SH-11037 and SH-11008, Synthetic Homoisoflavonoids for Retinal Neovascularization” (Pharmaceutics, 2022).
